Reference: patent US10765748B2, “Composition and methods for tethering bioactive peptides to metal oxide surfaces” (University of Akron, priority 2014, dated 2020)
“Also recorded” adds a separate entry of the source. Peptide text beside a SMILES is read from it. * marks the point of attachment. X1 = O=C(CCc1ccc(O)c(O)c1)NCCCC[C@H](NC(=O)CCc1ccc(O)c(O)c1)C(=O)*; FITC = O=C1OC2(c3ccc(O)cc3Oc3cc(O)ccc32)c2ccc(NC(=S)*)cc21; Dihydrocaffeoyl = O=C(CCc1ccc(O)c(O)c1)*

Key:
[1] = Live/Dead viability assay; assay type: cell-based; conditions: mouse; immobilized on TiO2 substrates, cultured 24 hours
Method: The toxicity of the dendron of the embodiments of the present invention was tested using mouse calvarial pre-osteoblast cells ([…]) cells. The MC3T3-E1 cells were seeded on the TiO2 substrates with immobilized FITC-labeled OGP-Cat and cultured for 24 hours. […] The cells were well spread on the peptide-bearing surfaces, which is a consistent with an adherent proliferating cell population. See also, Example 17.
MC3T3-E1 mouse preosteoblast (passage 17) were expanded and cultured in α-MEM media (Gibco, Life Technologies, Grand Island, N.Y.) supplemented with 10% fetal bovine serum (FBS) (Invitrogen), 100 units/mL penicillin (Invitrogen), and 100 μg/mL streptomycin (Invitrogen) at 37° C. in a 5% CO2 humidified atmosphere. The cells were subcultured every 3 days in the presence of 0.25% (w/v) trypsin and 0.5% (w/v) ethylenediaminetetraacetic acid tetrasodium salt (EDTA) solution. […]
Viability of the cell culture of Example 16 above was evaluated using a Live/Dead viability/cytotoxicity kit (Invitrogen, UK). […] The staining solution was removed and the samples were viewed under the IX81 fluorescence microscope (Olympus) with 494 nm (green, Calcein) and 528 nm (red, EthD-1) emission filters. For quantitative analysis a total of 250 cells were counted from each sample over 25 randomly chosen areas and the viable and non-viable cells counts were recorded.

[2] = Fluorescence intensity of FITC-labeled OGP-Cat immobilized on TiO2; assay type: physicochemical; conditions: 3 days in 25 mM HEPES buffer pH 7.4
Method: Fluorescein-labeled modular peptide (FITC-labeled OGP-Cat) was also synthesized to visualize the presence of the immobilized peptides on TiO2 surface using fluorescence microscopy. (See, Example 13). After immobilization of FITC-labeled OGP-Cat onto TiO2 surfaces, the fluorescence intensity was much stronger compared to the control sample, which incubating TiO2-coated substrates in a solution of FITC at identical concentration. […] See, FIGS. 10A-B.
To study the stability of sequestered modular peptides on targeting surfaces, the modular peptide immobilized TiO2 substrates were immersed in 25 mM HEPES buffer (pH=7.4 at 25° C.) and incubated for different durations. The mean intensity of FITC-labeled OGP-Cat immobilized TiO2 substrates after incubation was quantified to detect the diffusion of FITC-labeled OGP-Cat into surrounding solution. (See FIG. 11). […] It is believed that the mismatch of retention time for the monovalent ligands may be attributed to the sensitivity difference of XPS and fluorescence microscopy. […]
The florescence intensity of FITC-OGP-(Cat)n (n=1, 2, and 4) on TiO2, Fe2O3, Fe3O4, ZrO2, CeO2, SiO2, and Au substrates was viewed with an inverted IX81 Microscope (Olympus, Center Valley, Pa.) with mercury bulb excitation and the appropriate filters. […] The mean intensity was calculated based on at least 10 randomly chosen sites observed under the same conditions.

[3] = QCM-d adsorption of OGP-(Cat)4 to iron oxide; assay type: binding; conditions: c=1 μM
Method: (§1) The adsorption of tetravalent binding ligand OGP-(Cat)4 to a wide range of materials was tested to identify common features of materials to which the catechol-bearing ligands of various embodiments of the present invention strongly bind. […] While not wanting to be bound by theory, it is believed that this is because the coordination bond between catechol and metals with empty d-orbitals or f-orbitals provides a stronger interaction than Hydrogen bonding. […] Therefore, it is believed that OGP-(Cat)4 will be highly useful for the functionalization of transition metal oxides.
(§2) Quartz crystal microbalance with dissipation (QCM-d) was used to determine the binding isotherm for OGP-(Cat)4 on TiO2, Fe2O3, Fe3O4, ZrO2, CeO2, SiO2, and Au substrates. The AT cut sensors were purchased from Biolin Scientific AB (Sweden) and cleaned before use according to the protocol provided by the company. The sensor was excited at 5 MHz as its fundamental frequency. The frequency shift (Δf) and dissipation (ΔD) were measured at 3rd, 5th, 7th, 9th, 11th and 13th overtones. 25 mM HEPES buffer (pH=7.40 at 25° C.) was used as the flow medium. Sensors were mounted in the modules immediately after cleaning. […] Then solutions of catechol-bearing peptide (OGP-(Cat)4) in HEPES buffer were introduced and the flow continued until the adsorption reached its equilibrium state. […]

[4] = QCM-d adsorption of OGP-(Cat)4 to CeO2; assay type: binding; conditions: c=1 μM
Method: as §1, §2

[5] = QCM-d adsorption of catechol-functionalized dendrons to TiO2 surface; assay type: binding; conditions: for concentration to obtain ~6 Hz frequency shift: TiO2, 25° C., pH 7.4; for apparent disassociation constant Kd: 25° C., pH 7.4, single-site specific binding model; for maximum adsorption (Bmax): single-site specific binding model
Method: The adsorption processes of all molecules to TiO2 surfaces at 25° C. and pH 7.4 were monitored by quartz crystal microbalance with dissipation (QCM-d). (See Example 7). Multivalent binding effects that enhanced the binding affinity were clear. In FIG. 2, to obtain a similar level of adsorption, ˜6 Hz frequency shift, the concentration of monovalent ligand, OGP-Cat, was 13 μM, while that of tetravalent ligand, OGP-(Cat)4 and OGP-PEG-(Cat)4, was 0.32 and 0.16 μM, respectively due to the mass differences. A much smaller amount of sample (˜80-fold less) was needed for the tetravalent ligand OGP-PEG-(Cat)4 compared with the monovalent ligand OGP-Cat to achieve the same level (mass) of surface adsorption. […] Under similar conditions, the monovalent ligand was partially washed away. The adsorption kinetics were recorded by QCM-d, with regard to OGP-PEG-(Cat)4, and 2 hours were needed to reach the equilibrium state at a concentration of 0.16 μM.
To quantitatively compare the binding affinities of the multivalent binding ligands, their adsorption properties at several different concentrations were measured. The solutions at higher concentrations were switched to flow above the sensor, until the adsorption of previous solution at lower concentration reached the equilibrium state (the change in frequency shift is smaller than the signal fluctuation, 0.05 Hz/min), taking OGP-Cat as an example shown in FIG. 3A. In these experiments, the adsorption of OGP-Cat onto TiO2 surface at different concentrations was measured by QCM-d, while the concentration was increased sequentially (c1=0.068 μmol/L, c2=0.34 μmol/L, c3=1.8 μmol/L, c4=7.3 μmol/L, c5=13 μmol/L, and c6=34 μmol/L). At last the adsorbed layer was washed with 25 mM HEPES buffer. The flow rate was 0.150 mL/min. Three independent measurements (Sensors 1-3) are shown on FIG. 3A. The corresponding frequency shift was calculated using Sauerbrey Equation to get the adsorbed area mass. The adsorption isotherm of each molecule was drawn and fit with a single-site specific binding model to get the apparent disassociation constant (Kd) and maximum adsorption (Bmax) of OGP-Cat as in FIG. 3B and others in FIGS. 4A-F from the adsorbed area mass at the respective concentrations.
Quartz crystal microbalance with dissipation (QCM-d) was used to determine the binding isotherm for OGP-(Cat)4 on TiO2, Fe2O3, Fe3O4, ZrO2, CeO2, SiO2, and Au substrates. The AT cut sensors were purchased from Biolin Scientific AB (Sweden) and cleaned before use according to the protocol provided by the company. The sensor was excited at 5 MHz as its fundamental frequency. The frequency shift (Δf) and dissipation (ΔD) were measured at 3rd, 5th, 7th, 9th, 11th and 13th overtones. 25 mM HEPES buffer (pH=7.40 at 25° C.) was used as the flow medium. Sensors were mounted in the modules immediately after cleaning. […] Then solutions of catechol-bearing peptide (OGP-(Cat)4) in HEPES buffer were introduced and the flow continued until the adsorption reached its equilibrium state. If necessary, solutions at higher concentrations were introduced sequentially. Lastly, HEPES buffer was introduced again to wash the adsorbed layer. Three independent measurements were done simultaneously. The results are reported on FIG. 5.
The QCM-d measurements in Example 7 above may be used to calculate the adsorbed area mass. The adsorbed area mass was proportional to the frequency shift (Δf) and calculated by the Sauerbrey Equation. Sauerbrey Equation is
[formula] where C is the mass sensitivity constant with the value of 17.7 ng Hz^−1 cm^−2 for 5 MHz fundamental frequency crystal, n is the frequency overtone number, and n=7 was chosen to calculate the adsorption area mass. As long as the adsorbed mass is small compared to the crystal, sufficiently thin, and has limited viscoelastic coupling with the surrounding medium (ΔD<1×10^−6 per 10 Hz), this relationship is valid. […]

[6] = QCM-d adsorption of OGP-(Cat)4 to ZrO2; assay type: binding; conditions: c=1 μM
Method: as §1, §2

[7] = QCM-d adsorption of OGP-(Cat)4 to gold; assay type: binding
Method: as §1, §2

[8] = XPS of immobilized modular peptides on TiO2 substrates and retention in HEPES buffer; assay type: physicochemical; conditions: HEPES buffer pH 7.4
Method: Immobilization of peptides onto TiO2 surface was accomplished by immersing the TiO2 substrates into the corresponding modular peptide solution and incubating it overnight at ambient temperature. The successful immobilization of OGP-Cat and OGP-(Cat)4 onto TiO2-coated substrates were confirmed by XPS. Nitrogen is the element contained only in the modular peptides while not in bare TiO2, as shown in the XPS survey scan of bare TiO2 and OGP-(Cat)4 in FIG. 9A. […] It is noted that the N1s peaks in FIG. 9B are normalized to the highest intensity (O1s) for comparison of the signal to noise ratio.
To quantify the increase in nitrogen due to adsorption of OGP-Cat and OGP-(Cat)4, the nitrogen content (N1s) was normalized with Ti content (Ti2p), and compared with TiO2 substrate after incubation in HEPES buffer overnight (TiO2 as control), as show in Table 2, below.
To study the stability of sequestered modular peptides on targeting surfaces, the modular peptide immobilized TiO2 substrates were immersed in 25 mM HEPES buffer (pH=7.4 at 25° C.) and incubated for different durations. The mean intensity of FITC-labeled OGP-Cat immobilized TiO2 substrates after incubation was quantified to detect the diffusion of FITC-labeled OGP-Cat into surrounding solution. (See FIG. 11). […]

[9] = QCM-d adsorption of OGP-(Cat)4 to hydroxyapatite; assay type: binding; conditions: c=10 μM
Method: as §1

[10] = QCM-d adsorption of OGP-(Cat)4 to SiO2; assay type: binding
Method: as §1, §2

[11] = QCM-d adsorption of OGP-(Cat)4 to Al2O3; assay type: binding; conditions: c=10 μM
Method: as §1

Compound | viability at 24 h [1] | mean fluorescence intensity after incubation [2] | binding to iron oxide [3] | binding to CeO2 [4] | concentration to obtain ~6 Hz frequency shift [5] | Kd ([5]; TiO2 surface) | apparent disassociation constant Kd ([5]; TiO2 surface) | maximum adsorption (Bmax) ([5]; TiO2 surface) | binding to TiO2 ([5]; c=1 μM) | enhancement parameter β = Ka,multi/Ka,mono ([5]; multivalent vs monovalent ligand within set with or without PEG linkage) | coverage of binding sites / maximum adsorption on TiO2 ([5]; solution at 100×Kd (2.8 μM) or Kd (28 nmol/L)) | binding to ZrO2 [6] | adsorption to gold ([7]; c=1 μM) | adsorption to Au ([7]; c=10 μM) | incubation time after which decrease of N1s signal was detected [8] | adsorption to hydroxyapatite (HA) [9] | adsorption to SiO2 ([10]; c=1 μM) | adsorption to SiO2 ([10]; c=10 μM) | adsorption to Al2O3 [11]
O=C(O)CNC(=O)CNC(=O)[C@H](Cc1ccccc1)NC(=O)CNC(=O)[C@H](Cc1ccc(O)cc1)NC(=O)[C@H](CCCCNC(=S)Nc1ccc2c(c1)C(=O)OC21c2ccc(O)cc2Oc2cc(O)ccc21)NC(=O)CCc1ccc(O)c(O)c1 [FITC-labeled OGP-Cat] (Dihydrocaffeoyl-K(FITC)YGFGG-OH) | > 98% | deceased by about a half | – | – | – | – | – | – | – | – | – | – | – | – | – | – | – | – | –
O=C(O)CNC(=O)CNC(=O)[C@H](Cc1ccccc1)NC(=O)CNC(=O)[C@H](Cc1ccc(O)cc1)NC(=O)[C@H](CCCCNC(=O)[C@H](CCCCNC(=O)CCc1ccc(O)c(O)c1)NC(=O)CCc1ccc(O)c(O)c1)NC(=O)[C@H](CCCCNC(=O)CCc1ccc(O)c(O)c1)NC(=O)CCc1ccc(O)c(O)c1 [OGP-(Cat)4] (Dihydrocaffeoyl-K(Dihydrocaffeoyl)K(X1)YGFGG-OH) | – | – | strong binding | strongest binding | 0.32 µM | 0.031 ± 0.003 µM | 0.031 ± 0.003 µM | 160 ± 6 ng/cm^2 | strongest binding | 184 | 99% | strongest binding | some adsorption | relatively strongly adsorbed | 14 days | weakly adsorbed; also recorded: Limited adsorption | weak adsorption | weakly adsorbed; also recorded: Limited adsorption | weakly adsorbed; also recorded: Limited adsorption
NCCCC[C@H](NC(=O)CCc1ccc(O)c(O)c1)C(=O)N[C@@H](Cc1ccc(O)cc1)C(=O)NCC(=O)N[C@@H](Cc1ccccc1)C(=O)NCC(=O)NCC(=O)O [OGP-Cat] (Dihydrocaffeoyl-KYGFGG-OH) | – | – | – | – | 13 µM | – | 5.7 ± 0.2 µM | 54 ± 4 ng/cm^2 | – | – | – | – | – | – | 0.5 days | – | – | – | –
